# Measured values from US11484608B2, “Non-invasive assessment of hepatic mitochondrial metabolism by positional isotopomer NMR tracer analysis (PINTA)” (YALE UNIVERSITY, priority 2017, dated 2022).
# What was measured:
# [1] = test system: primary mouse hepatocytes; assay: In vitro glucose production, VPC and lipolysis in isolated hepatocytes; format: cell-based; settings: for glucagon-stimulated VPC flux / glucagon-stimulated glucose production: WT hepatocytes, 100 nM glucagon, 8 hr; for effect of glucagon to stimulate intrahepatic lipolysis: isolated hepatocytes
# Procedure: For in vitro glucose production and lipolysis studies, primary mouse hepatocytes were isolated by the Yale Liver Center. Following removal of cell debris by Percoll density gradient centrifugation, cells were plated on 6-well collagen-I coated dishes (4.0×10^5 cells/well) in 2 ml recovery media (DMEM High Glucose containing 10% FBS, 2% penicillin-streptomycin, 100 nM dexamethasone, 1 nM insulin, and 10 mM HEPES). After incubation for 6 hr at 37° C. and 5% CO2, the attached cells were washed once in 1×PBS and then incubated overnight in 2 ml Low Glucose Culture Media (DMEM Low Glucose supplemented with 10% FBS, 2% penicillin-streptomycin and 10 mM HEPES for glucose production studies) or Serum Free Low Glucose Culture Media (DMEM Low Glucose supplemented with 0.5% fatty acid free BSA, 2% penicillin-streptomycin and 10 mM HEPES for lipolysis assays). […] After incubation for 8 hr at 37° C. and 5% CO2, cell culture media was collected for analysis of glucose, NEFA, and glycerol concentrations as described above. VPC was determined by measuring VPC/VEGP by PINTA as described above using 300 μL of the collected media, and multiplying this ratio by the measured glucose production rate. In a subset of studies, cells were incubated for 8 hr during the glucose production assay in media containing one of the following agents (all dissolved in 0.5% DMSO), or 0.5% DMSO vehicle: 20 μM ET-18-OCH3 (Santa Cruz), 100 μM U-73122 (Sigma), 30 nM thapsigargin (Sigma), 100 nM vasopressin (Sigma) 50 μM 2-APB (R&D Systems), 70 μM caffeine (Sigma), 1 mM malic enzyme inhibitor hydroxymalonate (Sigma). To inhibit PKA, hepatocytes were incubated in H-89 […] hydrate (Sigma, 25 μM) dissolved in media, or media lacking H-89 as a control. In the insulin treatment studies, hepatocytes were incubated in 1 nM insulin with 5% BSA and glucose production media for the duration of the glucose production assay. In the in vitro atglistatin study, hepatocytes were incubated in 10 μM atglistatin in 0.1% EtOH, or 0.1% EtOH vehicle. All values were normalized to total protein content determined from whole-cell lysates by a BCA protein assay (Thermo Fisher Scientific) according to the manufacturer's instructions and expressed as fold change verses vehicle-treated cells.
# CPT-1 = molecular target: T1, CPT-1 (Rattus norvegicus, UniProt P32198); assay: CPT-1 inhibitor etomoxir in 0, 6, 16 and 48 hr fasted rats; format: in vivo
# T1 construct: from tissue; host or cells: live rat, in vivo (intraperitoneal dosing); liver is the tissue discussed
# T1 sequence (P32198 1-773): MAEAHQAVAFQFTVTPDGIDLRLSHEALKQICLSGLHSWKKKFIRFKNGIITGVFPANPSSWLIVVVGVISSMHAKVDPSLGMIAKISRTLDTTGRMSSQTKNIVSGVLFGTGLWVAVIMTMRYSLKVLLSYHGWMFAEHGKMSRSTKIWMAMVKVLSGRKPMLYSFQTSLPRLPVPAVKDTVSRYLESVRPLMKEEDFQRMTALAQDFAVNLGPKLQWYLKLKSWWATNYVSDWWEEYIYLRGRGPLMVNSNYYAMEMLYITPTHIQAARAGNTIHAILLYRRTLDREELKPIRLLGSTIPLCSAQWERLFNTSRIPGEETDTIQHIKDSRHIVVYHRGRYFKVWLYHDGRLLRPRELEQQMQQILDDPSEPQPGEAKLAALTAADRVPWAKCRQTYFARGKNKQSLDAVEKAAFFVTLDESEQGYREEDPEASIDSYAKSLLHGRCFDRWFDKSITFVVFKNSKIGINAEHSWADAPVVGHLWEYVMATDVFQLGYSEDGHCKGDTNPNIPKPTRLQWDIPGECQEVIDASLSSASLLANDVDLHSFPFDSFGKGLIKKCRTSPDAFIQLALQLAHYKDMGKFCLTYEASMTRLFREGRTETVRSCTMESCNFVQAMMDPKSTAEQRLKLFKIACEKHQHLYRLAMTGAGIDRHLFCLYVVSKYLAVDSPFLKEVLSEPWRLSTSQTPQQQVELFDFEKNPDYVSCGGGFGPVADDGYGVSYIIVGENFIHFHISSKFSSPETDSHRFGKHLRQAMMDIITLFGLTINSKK
# Procedure: (§1) 8, 16, and 48 hr fasted rats were injected with a small molecule inhibitor of glycogen phosphorylase, 1-(3-(3-(2-Chloro-4,5-difluorobenzoyl) ureido)-4-methoxyphenyl)-3-methylurea (Sigma #361515; 5 mg/kg IV) and a tracer infusion of [2,3,3,3-^2H4]alanine ([…]prime for 5 min and […] continuous) and [3-^3H]glucose (0.3 μCi/min prime for 5 min and 0.3 μCi/min continuous) as well as [^13C4] β-hydroxybutyrate, [1,1,2,3,3-^2H5]glycerol, and [^13C16]palmitate at the rates listed in Table 9, for 120 min. Blood samples were obtained before (time zero) and 120 min after treatment with the glycogen phosphorylase inhibitor for measurement of turnover rates and plasma hormone/substrate concentrations. Hepatic acetyl-CoA content was altered by treatment with a CPT-1 inhibitor (etomoxir, 8 mg/kg) or an ATGL inhibitor (atglistatin, […]) in 0, 6, 16, and 48 hr fasted rats. Both agents were solubilized by suspending the drug in 4% ethanol/96% normal saline, heating to 60° C., and sonicating, and were cooled to room temperature before they were injected intraperitoneally. […] In these animals plasma glucose concentrations were measured every 15 minutes and a variable infusion of 20% glucose (Pfizer Hospira, Lake Forest, Ill.) was used to maintain plasma glucose concentrations ˜3.6-3.7 mM. The physiologic role of glucocorticoids was assessed in 6 and 48 hr fasted rats by treatment with a glucocorticoid receptor antagonist, mifepristone. Following a 2 hr tracer infusion at the rates described above to assess fatty acid, glycerol, glucose, and β-hydroxybutyrate turnover, rats were injected with mifepristone (40 mg/kg) IV. The tracer infusion was continued and the tracer of each of the above substrates was again measured 2 hr after treatment with mifepristone.
# (§2) All whole-body substrate turnover rates were calculated using the equation Turnover=([Tracer APE/Plasma APE]−1)*Infusion rate, where APE designates the atom percent enrichment measured by mass spectrometry as described below (Biochemical Analysis). All chemicals used for flux analysis were obtained from SIGMA. Turnover of glucose, glycerol, and β-hydroxybutyrate were determined by gas chromatography-mass spectrometry (GC-MS). Briefly, both glucose and glycerol were deprotonized with 5 volumes of methanol, derivitized with 3 volumes of 1:1 acetic anhydride:pyridine, heated to 65° C. for 20 min, and 1 volume of methanol was added, then GC-MS was used in CI mode to measure glucose enrichment and EI mode to measure glycerol enrichment, with turnover calculated using the equation above. β-Hydroxybutyrate was deprotonized with 5 volumes of methanol and derivitized with 3 volumes of n-butanol 4N HCl, after which the samples were heated to 65° C. for 60 min, evaporated under N2 gas, and re-suspended in […] of trifluoroacetic acid:methylene chloride (1:7). Fatty acid turnover was measured by determining the plasma palmitate enrichment by GC-MS. Samples were prepared for measurements of palmitate enrichment by evaporating […] plasma, dissolving in […] 1:1 chloroform:methanol and derivitizing with […] boron trifluoride/methanol, then heating to 100° C. for 5 min, adding 2 mL pentane and 1 mL water, and centrifuging at low speed for 5 min. […] Alanine turnover was determined in rats infused with [2,3,3,3-^2H4]alanine by preparing samples to measure alanine enrichment by GC/MS (CI mode) using the same protocol as was employed to measure β-hydroxybutyrate enrichment.
# glycogen phosphorylase = molecular target: T2, glycogen phosphorylase (Rattus norvegicus, UniProt P09811); assay: Glycogen phosphorylase inhibitor in 8, 16 and 48 hr fasted rats; format: in vivo; settings: for reduction in rates of endogenous glucose production: 5 mg/kg IV, 2 hr
# T2 construct: from tissue; host or cells: live rat, in vivo (IV dosing); liver is the tissue discussed
# T2 sequence (P09811 1-850): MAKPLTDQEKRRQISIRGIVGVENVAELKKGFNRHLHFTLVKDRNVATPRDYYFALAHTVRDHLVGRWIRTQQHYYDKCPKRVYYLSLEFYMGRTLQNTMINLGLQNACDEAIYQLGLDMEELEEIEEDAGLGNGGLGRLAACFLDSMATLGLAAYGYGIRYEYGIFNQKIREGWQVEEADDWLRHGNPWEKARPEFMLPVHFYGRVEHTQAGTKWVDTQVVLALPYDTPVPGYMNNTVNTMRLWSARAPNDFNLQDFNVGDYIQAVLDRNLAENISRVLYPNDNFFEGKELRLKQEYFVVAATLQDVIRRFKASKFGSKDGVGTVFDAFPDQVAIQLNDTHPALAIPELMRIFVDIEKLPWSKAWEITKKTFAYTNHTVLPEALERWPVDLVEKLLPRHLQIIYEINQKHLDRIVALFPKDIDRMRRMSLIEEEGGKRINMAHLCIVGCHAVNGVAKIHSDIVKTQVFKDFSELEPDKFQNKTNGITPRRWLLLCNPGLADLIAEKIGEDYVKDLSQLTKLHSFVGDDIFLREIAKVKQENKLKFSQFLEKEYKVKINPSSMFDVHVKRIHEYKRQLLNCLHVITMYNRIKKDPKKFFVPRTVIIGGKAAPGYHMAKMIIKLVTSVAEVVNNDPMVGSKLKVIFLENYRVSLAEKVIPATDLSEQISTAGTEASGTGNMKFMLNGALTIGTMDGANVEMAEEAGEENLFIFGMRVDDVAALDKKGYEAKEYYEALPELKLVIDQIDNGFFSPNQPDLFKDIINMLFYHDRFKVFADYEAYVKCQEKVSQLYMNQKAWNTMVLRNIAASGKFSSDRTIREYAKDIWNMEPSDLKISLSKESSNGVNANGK
# Procedure: as §1, §2
# [2] = short-term fasted rats (8 and 16 hr)
compound,measurement,setting,value
"NCCOB(c1ccccc1)c1ccccc1 [2-APB, 2-aminoethoxydiphenyl borate]",glucagon-stimulated VPC flux,[1],inhibited
same,glucagon-stimulated glucose production,[1],inhibited
same,effect of glucagon to stimulate intrahepatic lipolysis,[1],abrogated
CCCCCCCCCCCCCCCCCCOCC(COP(=O)([O-])OCC[N+](C)(C)C)OC (centres unmarked) [ET-18-OCH3],glucagon-stimulated VPC flux,[1],inhibited
same,glucagon-stimulated glucose production,[1],inhibited
same,effect of glucagon to stimulate intrahepatic lipolysis,[1],abrogated
COc1ccc(S(=O)(=O)N(CCO)c2ccccc2CN(C)C/C=C/c2ccc(Cl)cc2)cc1 [KN-93],glucagon-stimulated glucose production,[1],abrogated
same,effect of glucagon to stimulate intrahepatic lipolysis,[1],abrogated
COc1ccc2c(c1)CC[C@@H]1[C@@H]2CC[C@]2(C)[C@@H](NCCCCCCN3C(=O)C=CC3=O)CC[C@@H]12 [U-73122],glucagon-stimulated VPC flux,[1],inhibited
same,glucagon-stimulated glucose production,[1],inhibited
same,effect of glucagon to stimulate intrahepatic lipolysis,[1],abrogated
Cn1c(=O)c2c(ncn2C)n(C)c1=O [caffeine],glucagon-stimulated VPC flux,[1],inhibited
same,glucagon-stimulated glucose production,[1],inhibited
same,effect of glucagon to stimulate intrahepatic lipolysis,[1],abrogated
CCOC(=O)[C@@]1(CCCCCCOc2ccc(Cl)cc2)CO1 [etomoxir],plasma corticosterone concentrations,CPT-1; 16- and 48-hr fasted rats,increases
same,reductions in plasma leptin concentrations,CPT-1; 16- and 48-hr fasted rats,50%
same,"hepatic acetyl-CoA content, hepatic gluconeogenesis, and plasma glucose and insulin concentrations",CPT-1; 16- to 48-hr fasted rats,suppressed
same,WAT lipolysis,CPT-1; fasted rats,increased
same,hepatic acetyl-CoA content,CPT-1; fasted rats,suppression
same,plasma epinephrine or norepinephrine concentrations,CPT-1; fasted rats,no differences
same,plasma lactate and hepatic malonyl-CoA concentrations,CPT-1; fasted rats,unchanged
same,β-hydroxybutyrate turnover,CPT-1; fasted rats,suppression
same,plasma glucose concentrations,"CPT-1; fasted rats, 8 mg/kg IP, 2 hr",lowered
same,plasma insulin concentrations,"CPT-1; fasted rats, 8 mg/kg IP, 2 hr",lowered
same,whole body glucose turnover,"CPT-1; fasted rats, 8 mg/kg IP, 2 hr",lowered
"CNC(=O)Nc1ccc(OC)c(NC(=O)NC(=O)c2cc(F)c(F)cc2Cl)c1 [glycogen phosphorylase inhibitor, 1-(3-(3-(2-Chloro-4,5-difluorobenzoyl)ureido)-4-methoxyphenyl)-3-methylurea]",plasma ACTH concentrations,glycogen phosphorylase; 8- and 16-hr fasted rats,increases
same,plasma corticosterone concentrations,glycogen phosphorylase; 8- and 16-hr fasted rats,increases
same,plasma leptin concentrations,glycogen phosphorylase; 8- and 16-hr fasted rats,reductions
same,reduction in rates of endogenous glucose production,glycogen phosphorylase; 8-hr fasted rats,60%
same,plasma FGF-21 concentrations,glycogen phosphorylase; 8 and 16-hr fasted rats,increased
same,plasma glucose concentrations,glycogen phosphorylase; 8 and 16 hr fasted rats,lowered
same,plasma insulin concentrations,glycogen phosphorylase; 8 and 16 hr fasted rats,lowered
same,plasma lactate concentrations,glycogen phosphorylase; 8 and 16 hr fasted rats,lowered
same,whole-body glucose turnover,glycogen phosphorylase; 8 and 16 hr fasted rats,lowered
same,reduction in rates of endogenous glucose production,glycogen phosphorylase; 16-hr fasted rats,30%
same,"plasma glucose, lactate, and insulin concentrations and whole-body glucose turnover",glycogen phosphorylase; 48-hr fasted rats,not in the 48-hr fasted rats
same,rates of endogenous glucose production,glycogen phosphorylase; 48-hr fasted rats,no difference
same,plasma glucagon and catecholamine concentrations,glycogen phosphorylase; fasted rats,not altered
same,rates of WAT lipolysis,glycogen phosphorylase; [2],increased
same,rates of alanine turnover,glycogen phosphorylase; [2],decreased
C/C=C(/C)C(=O)O[C@H]1C(C)=C2[C@H]([C@@H]1OC(=O)CCCCCCC)[C@@](C)(OC(C)=O)C[C@H](OC(=O)CCC)[C@@]1(O)[C@H]2OC(=O)[C@@]1(C)O [thapsigargin],glucagon-stimulated VPC flux,[1],inhibited
same,glucagon-stimulated glucose production,[1],inhibited
same,effect of glucagon to stimulate intrahepatic lipolysis,[1],abrogated
insulin,glucose production and VPC flux,"[1]; isolated hepatocytes with insulin, unaltered in InsP3R-I KO",suppress
